Literature values as cited in publication PMC4198332 (Chembiochem : a European journal of chemical biology, 2014).

What was measured:
E. coli (ATCC 25922) = details: included for comparison
[1] = tested on: Vancomycin-resistant E. faecalis (ATCC 700802); details: included for comparison
[2] = tested on: human red blood cells (hRBCs)
[3] = tested on: Methicillin-resistant S. aureus (MRSA) (ATCC 33591); details: included for comparison
[4] = tested on: P. aeruginosa (ATCC 27853); details: included for comparison
[5] = tested on: Methicillin-resistant S. epidermidis (MRSE) (RP62A); details: included for comparison

Pexiganan
MIC E. coli (−) (E. coli (ATCC 25922)): 8 µg/mL | MIC E. faecalis (+) [1]: 32 µg/mL | Hemolysis HC50 [2]: --/120 μg/mL | MIC MRSA (+) [3]: 16 µg/mL | MIC P. Aeruginosa (−) [4]: 16 µg/mL | MIC MRSE (+) [5]: 8 µg/mL
